Experimental data reported in patent US7056900B2, “Disaccharide derivatives for treating hyperglycaemia” (Sudzucker Aktiengesellschaft Mannheim Ochsenfurt, priority 1997, dated 2006).
“Also recorded” adds a separate entry of the source. Where two headings read alike, the source gives them in different places.

Experiments:
Type in all cases: biochemical, hog
[1] = target: T1, sucrase/isomaltase (SI) (Sus scrofa, UniProt P56729); assay: Cleavage on incubation (24 hours) with SI; conditions: 37° C.
T1 sequence (P56729 with tags, fused parts or gaps): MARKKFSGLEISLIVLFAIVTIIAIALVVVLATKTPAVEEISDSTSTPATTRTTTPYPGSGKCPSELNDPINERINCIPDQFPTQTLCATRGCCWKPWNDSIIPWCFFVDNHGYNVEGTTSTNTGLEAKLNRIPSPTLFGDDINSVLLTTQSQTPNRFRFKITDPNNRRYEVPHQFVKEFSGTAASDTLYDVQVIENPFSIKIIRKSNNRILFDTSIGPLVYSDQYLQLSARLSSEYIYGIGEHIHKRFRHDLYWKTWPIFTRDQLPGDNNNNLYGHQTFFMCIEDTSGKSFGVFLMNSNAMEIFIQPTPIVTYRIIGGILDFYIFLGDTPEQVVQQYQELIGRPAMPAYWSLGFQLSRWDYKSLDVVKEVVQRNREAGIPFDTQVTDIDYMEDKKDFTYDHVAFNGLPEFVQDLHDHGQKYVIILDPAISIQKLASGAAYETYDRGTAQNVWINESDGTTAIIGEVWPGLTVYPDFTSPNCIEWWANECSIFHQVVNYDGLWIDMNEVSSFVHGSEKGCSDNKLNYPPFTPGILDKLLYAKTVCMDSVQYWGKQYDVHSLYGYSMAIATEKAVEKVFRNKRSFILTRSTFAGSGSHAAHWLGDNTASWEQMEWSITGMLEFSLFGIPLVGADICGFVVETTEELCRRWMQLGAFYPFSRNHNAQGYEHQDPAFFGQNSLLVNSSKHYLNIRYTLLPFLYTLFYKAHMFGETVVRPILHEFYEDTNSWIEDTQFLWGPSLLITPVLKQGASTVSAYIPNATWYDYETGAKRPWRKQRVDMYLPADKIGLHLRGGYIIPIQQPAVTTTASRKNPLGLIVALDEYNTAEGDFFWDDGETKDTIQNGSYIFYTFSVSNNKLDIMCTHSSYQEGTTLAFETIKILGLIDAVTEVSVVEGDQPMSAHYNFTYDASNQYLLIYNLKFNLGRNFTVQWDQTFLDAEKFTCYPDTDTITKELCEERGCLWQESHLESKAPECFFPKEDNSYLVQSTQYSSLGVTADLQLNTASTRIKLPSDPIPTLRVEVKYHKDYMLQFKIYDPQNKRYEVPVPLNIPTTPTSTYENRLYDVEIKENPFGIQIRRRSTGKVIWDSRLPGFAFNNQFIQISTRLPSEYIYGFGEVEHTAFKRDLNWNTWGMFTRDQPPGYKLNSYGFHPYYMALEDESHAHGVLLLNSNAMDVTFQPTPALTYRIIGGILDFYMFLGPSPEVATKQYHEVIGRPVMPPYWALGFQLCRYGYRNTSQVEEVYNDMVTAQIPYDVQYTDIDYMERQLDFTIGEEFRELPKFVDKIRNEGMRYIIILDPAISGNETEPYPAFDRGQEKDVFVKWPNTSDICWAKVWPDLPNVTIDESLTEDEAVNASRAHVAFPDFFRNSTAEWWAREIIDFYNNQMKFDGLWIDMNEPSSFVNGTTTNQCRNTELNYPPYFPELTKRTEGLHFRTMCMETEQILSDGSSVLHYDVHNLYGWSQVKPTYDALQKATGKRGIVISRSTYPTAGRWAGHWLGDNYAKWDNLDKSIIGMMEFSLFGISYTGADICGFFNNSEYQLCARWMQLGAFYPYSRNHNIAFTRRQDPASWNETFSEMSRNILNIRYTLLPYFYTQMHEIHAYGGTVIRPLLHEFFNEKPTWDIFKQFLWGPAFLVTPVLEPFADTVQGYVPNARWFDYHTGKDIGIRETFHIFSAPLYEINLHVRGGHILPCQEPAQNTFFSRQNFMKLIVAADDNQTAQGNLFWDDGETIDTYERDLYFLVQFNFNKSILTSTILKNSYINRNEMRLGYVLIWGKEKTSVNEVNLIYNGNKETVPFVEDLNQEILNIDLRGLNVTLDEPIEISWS
Method: (§1) Sucrase/isomaltase (SI) and glucoamylase/maltase (GM) were isolated by papain digestion from hog small intestine mucosa and enriched by ammoniumsulfate precipitation. […] D) A study was first made as to what extent the inventive disaccharide derivatives and comparison substances, that is to say sucrose and maltose, were cleaved by SI or by GM during incubation for 24 hours. [table]

[2] = test system: glucoamylase/maltase (GM); assay: Cleavage on incubation (24 hours) with GM; conditions: 37° C.
Method: as §1

[3] = test system: glucoamylase/maltase (GM); assay: Inhibition of GM-catalyzed hydrolysis of maltose (GM/maltose), coupled HK/G6PDH optical test; conditions: for KM/Ki / inhibitor strength (in words) / Ki: GM/maltose; for Ki: secondary Lineweaver-Burk plots
Method: (§2) The maltase activity was studied using the substrate maltose. Sucrase/isomaltase (SI) and glucoamylase/maltase (GM) were isolated by papain digestion from hog small intestine mucosa and enriched by ammoniumsulfate precipitation. […] B) In the methods described hereinafter for determining the enzyme activity of sucrase/isomaltase and glucoamylase/maltase under the influence of the substances tested, the amount of glucose or fructose released was determined as measured parameter. This took place in an enzymatic optical test using hexokinase (HK) and glucose-6-phosphate dehydrogenase (G6PDH) as a coupled detection system (Beutler, H.-O.; in: Methods of Enzymatic Analysis; Bergmeyer, H. U.; Bergmeyer, […] edition; Vol. […] The measurement was made at 37° C. and a pH of 7.0. The table below reports the composition of the assays necessary for the individual tests. In individual tests, the semimicro assay was used, but this was reduced in some cases to a micro assay. […] C) Before the inhibitor strengths were determined, for each enzyme-substrate combination basic kinetics were established in which not only the Michaelis-Menten constant (KM [mmol/l]) but also the maximum velocity (Vmax [μmol/mLmin]) were determined. […] The level of the inhibitor concentrations used depended on the strength of the resulting inhibition. For each of the enzyme-substrate combinations, 3 to 4 sets of kinetics at different inhibitor concentrations were established. The inhibitor constants Ki and Kii were, unless stated otherwise, determined from secondary Lineweaver-Burk plots.

[4] = target: T1, sucrase/isomaltase (SI); assay: Inhibition of SI-catalyzed hydrolysis of isomaltose (SI/isomaltose), coupled HK/G6PDH optical test; design: isolated by papain digestion from hog small intestine mucosa and enriched by ammoniumsulfate precipitation; from tissue; host or cells: hog small intestine mucosa; key to Type (of inhibition): K means competitive inhibition; NK means noncompetitive inhibition; UK means uncompetitive inhibition; conditions: for KM/Ki / Type (of inhibition) / inhibitor strength (in words) / Ki: SI/isomaltose; for Ki: secondary Lineweaver-Burk plots
Excerpt: (§3) A) The activity of the SI enzyme complex was studied using three different substrates, that is to say sucrose, maltose and isomaltose.
The isomaltase activity was studied using the substrate isomaltose.
(§4) Sucrase/isomaltase (SI) and glucoamylase/maltase (GM) were isolated by papain digestion from hog small intestine mucosa and enriched by ammoniumsulfate precipitation. The enzymes were separated into isolated sucrase/isomaltase (SI) and glucoamylase/maltase (GM) via an ion exchanger (DEAE cellulose), and a following fine fractionation using gel filtration on a Superdex 200 column from Pharmacia.
(§5) B) In the methods described hereinafter for determining the enzyme activity of sucrase/isomaltase and glucoamylase/maltase under the influence of the substances tested, the amount of glucose or fructose released was determined as measured parameter. This took place in an enzymatic optical test using hexokinase (HK) and glucose-6-phosphate dehydrogenase (G6PDH) as a coupled detection system (Beutler, H.-O.; in: Methods of Enzymatic Analysis; Bergmeyer, H. U.; Bergmeyer, J.; Graβl, M. (editors); 3rd edition; Vol. VI, 2–10). The measurement was made at 37° C. and a pH of 7.0.
(§6) The table below reports the composition of the assays necessary for the individual tests. In individual tests, the semimicro assay was used, but this was reduced in some cases to a micro assay.
(§7) C) Before the inhibitor strengths were determined, for each enzyme-substrate combination basic kinetics were established in which not only the Michaelis-Menten constant (KM [mmol/l]) but also the maximum velocity (Vmax [μmol/mLmin]) were determined. For the enzyme/substrate combination SI/sucrose, a substrate concentration of from 1.24 to 124 mmol/L was used, for the enzyme/substrate combination SI/maltose a substrate concentration of from 0.62 to 24.8 mmol/L was used, for the enzyme/substrate combination SI/isomaltose a substrate concentration of from 3.6 to 57.6 mmol/L was used and for the enzyme/substrate combination GM/maltose a substrate concentration of from 0.31 to 12.4 mmol/L was used in the assay.
(§8) The level of the inhibitor concentrations used depended on the strength of the resulting inhibition. For each of the enzyme-substrate combinations, 3 to 4 sets of kinetics at different inhibitor concentrations were established. The inhibitor constants Ki and Kii were, unless stated otherwise, determined from secondary Lineweaver-Burk plots.

[5] = target: T1, sucrase/isomaltase (SI); assay: Inhibition of SI-catalyzed hydrolysis of sucrose (SI/sucrose), coupled HK/G6PDH optical test
Excerpt: as §3, §4, §5, §6, §7, §8

[6] = target: T1, sucrase/isomaltase (SI); assay: Inhibition of SI-catalyzed hydrolysis of maltose (SI/maltose), coupled HK/G6PDH optical test
Excerpt: as §2, with “A) The activity of the SI enzyme complex was studied using three different substrates, that is to say sucrose, maltose and isomaltose. The maltase” for “The maltase”

[7] = cleavage product detected: fructose
[8] = cleavage product detected: glucose
[9] = SI/sucrose, secondary Lineweaver-Burk plots, read-out: Ki
[10] = SI/sucrose, secondary Lineweaver-Burk plots, read-out: Kii
[11] = SI/maltose, secondary Lineweaver-Burk plots, read-out: Ki
[12] = SI/maltose, secondary Lineweaver-Burk plots, read-out: Kii

## OC[C@H]1O[C@@](CO)(O[C@H]2O[C@H](CO)[C@@H](O)[C@H](O)[C@H]2O)[C@@H](O)[C@@H]1O [Sucrose, reference compound]
[1]; [7]
  SI conversion rate: 87%
[1]; [8]
  SI conversion rate: 85%

## OC[C@H]1O[C@H](O[C@H]2[C@H](O)[C@@H](O)C(O)O[C@@H]2CO)[C@H](O)[C@@H](O)[C@@H]1O (mixture of isomers) [Maltose, reference compound]
[1]; [8]
  SI conversion rate: 100%
[2]; [8]
  GM conversion rate: 95.7%
[3]; GM/maltose basic kinetics, substrate, mean, 37° C., pH 7.0
  Km: 4.2 ± 1 mM
[3]; GM/maltose basic kinetics, enzyme solution with maltase activity of 5 U/mL
  Vmax: 4.8 ± 0.7 U/mL

## OC[C@H]1O[C@H](OC[C@H]2OC(O)[C@H](O)[C@@H](O)[C@@H]2O)[C@H](O)[C@@H](O)[C@@H]1O (some centres unmarked) [isomaltose, reference compound]
[4]; SI/isomaltose basic kinetics, substrate, mean, 37° C., pH 7.0
  Km: 73.9 ± 6.8 mM
[4]; SI/isomaltose basic kinetics, enzyme solution with maltase activity of 5 U/mL
  Vmax: 3.07 ± 0.18 U/mL

## N[C@H]1[C@H](O)[C@@H](CO)O[C@@]1(CO)O[C@H]1O[C@H](CO)[C@@H](O)[C@H](O)[C@H]1O [3′-aminosucrose]
[1]; [7]
  SI conversion rate: 0%
[5]; SI/sucrose
  KM/Ki: 11530
  inhibitor strength (in words): to a high percentage even at very low concentrations; also recorded: strong to very strong
[5]; SI/sucrose, inhibitor concentration of 1 mmol/L
  enzymatic activity: no longer measurable
[5]; SI/sucrose, with preincubation, Dixon evaluation, read-out: Ki
  Ki: 0.0065 mM
[5]; SI/sucrose, with preincubation, Henderson evaluation, read-out: Ki
  Ki: 0.0063 mM
[5]; SI/sucrose, without preincubation, Dixon evaluation, read-out: Ki
  Ki: 0.0052 mM
[5]; SI/sucrose, without preincubation, Henderson evaluation, read-out: Ki
  Ki: 0.005 mM
[5]; concentration of 5 μmol/mL
  sucrose hydrolysis inhibited: about 30%
[2]; [7]
  GM conversion rate: 0%
[6]; SI/maltose
  KM/Ki: 2113
  inhibitor strength (in words): to a high percentage even at very low concentrations; also recorded: strong to very strong
[6]; SI/maltose, inhibitor concentration of 1 mmol/L
  enzymatic activity: no longer measurable
[6]; SI/maltose, with preincubation, Dixon evaluation, read-out: Ki
  Ki: 0.0046 mM
[6]; SI/maltose, with preincubation, Henderson evaluation, read-out: Ki
  Ki: 0.0046 mM
[6]; SI/maltose, without preincubation, Dixon evaluation, read-out: Ki
  Ki: 0.0054 mM
[6]; SI/maltose, without preincubation, Henderson evaluation, read-out: Ki
  Ki: 0.0052 mM
[6]; concentration of 5 μmol/mL
  maltose hydrolysis inhibited: about 50%
[3]
  KM/Ki: 3.1
  inhibitor strength (in words): to a high percentage even at very low concentrations; also recorded: strong to very strong
[3]; read-out: Ki
  Ki: 1 mM
[3]; read-out: Kii
  Ki: 17 mM
[4]
  KM/Ki: 8.2
  Type (of inhibition): K
  inhibitor strength (in words): strong to very strong

## O=C(O)C1OC(OCC2OC(O)(CO)C(O)C2O)C(O)C(O)C1O (centres unmarked) [Pal-C6′S, palatinose-C6′-acid]
[1]; [7]
  SI conversion rate: 0.4%
[5]; SI/sucrose
  KM/Ki: 8.4
  inhibitor strength (in words): strong to very strong
[5]; [9]
  Ki: 7 mM
[5]; [10]
  Ki: 8 mM
[2]; [7]
  GM conversion rate: 0.1%
[6]; SI/maltose
  KM/Ki: 0.7
  inhibitor strength (in words): inhibitory action
[6]; [11]
  Ki: 16 mM
[6]; [12]
  Ki: 31 mM
[3]
  KM/Ki: 0.22
  inhibitor strength (in words): inhibitory action
[3]; read-out: Ki
  Ki: 20 mM
[4]
  KM/Ki: 3.7
  Type (of inhibition): K
  inhibitor strength (in words): strong to very strong

## sucrose-C6-acid [Suc-C6S]
[1]; [8]
  SI conversion rate: 2%
[5]; SI/sucrose
  KM/Ki: 6.2
  inhibitor strength (in words): strong to very strong
[5]; [9]
  Ki: 9 mM
[5]; [10]
  Ki: 9 mM
[2]; [8]
  GM conversion rate: 0%
[6]; SI/maltose
  KM/Ki: 0.26
  inhibitor strength (in words): inhibitory action
[6]; [11]
  Ki: 43 mM
[6]; [12]
  Ki: 5 mM
[3]; read-out: Kii
  Ki: 4 mM
[4]
  KM/Ki: 1
  Type (of inhibition): NK
  inhibitor strength (in words): strong to very strong
[4]; read-out: Ki
  Ki: 73 mM
[4]; read-out: Kii
  Ki: 3 mM
